Reference: patent publication US20050136488A1, “Cellular membrane protein assay” (priority 2003, published 2005)
Like-named read-outs stand apart in the source and are kept apart here.

What was measured:
[1] = system: GLUT4-PL in CHO/pGLUT4-PL.1 cells; conditions: 30 min, serum-containing media, thrombin 20 units/ml
Protocol: In this experiment, CHO/pGLUT4-PL.1 cells were treated for 30 min with 0, 0.1, 1, and 10 μM insulin in serum-containing media. The liquid above the cells was then replaced with buffer containing thrombin at 20 units/ml and processed for the intact-cell EFC assay.
1) Seed cells into individual wells at a density of 10,000 cells in 100 μl media. For transient transfectants, replace the media above cells with fresh media one day post-transfection. Perform the intact-cell EFC assay two days after seeding the cells. To assay GLUT4-PL at the cell surface under basal growth conditions (serum-containing media, no exogenous insulin), proceed to step 3.
2) For insulin induction, add 20 μl/well of insulin diluted in media to 6× system concentration (e.g., add 20 μl of 6 μM insulin to the 100 μl liquid above cells to achieve an insulin system concentration of 1 μM). Return plate to incubator for 30 min. Starving cells of serum 2-to-4 hours prior to adding insulin diluted in serum-free media may achieve a larger insulin-response window.
3) Remove the media above the cells by aspiration. Add 50 μl/well thrombin solution (20 units/ml thrombin; 1×PBS; 0.1 mg/ml BSA; 10 mM each KF and NaAzide (NaN3)). Return plate to incubator for 1 hr. […]
5) Add 30 μl/well CL Substrate. […] Readings are taken at periodic intervals from 15 min to 1 hr on a luminescence plate reader.

[2] = biological target: T1, GLUT4-PL in CHO/pGLUT4-PL.1 cells (Homo sapiens, UniProt P14672, INS67[…]); experiment: intact-cell EFC assay, thrombin release of ProLabel from GLUT4-PL; type: cell-based; conditions: thrombin 60 units/ml, intact CHO cells expressing pGLUT4-PL.1
T1 construct: expressed in transfected cells; host or cells: CHO cells transfected with plasmid pGLUT4-PL.1
Protocol: Detection of GLUT4-PL after protease cleavage. Central to the concept of using EFC to monitor GLUT4-PL at the cell surface is the proteolytic release of the internal ProLabel tag from the protein's first exofacial loop. Initial studies were therefore directed at developing and characterizing an intact-cell EFC protocol using thrombin protease. All of the experiments described below were carried out in 96-well assay plates. To test whether thrombin treatment could enhance EFC signal, intact cells expressing pGLUT4-PL.1 were treated with 50 μl buffer alone or buffer containing thrombin at increasing concentrations. Eighty μl of a solution containing EA and the protease inhibitor AEBSF (7.5 mM final concentration) were added subsequently, followed by 30 μl of chemiluminescent substrate. Thrombin treatment led to a dose-dependent enhancement of EFC activity, with 60 units/ml enhancing EFC activity 4.4-fold over untreated cells (FIG. 4). To test whether thrombin proteolytic activity per se, and not a non-specific component of the thrombin formulation was responsible for the increased EFC signal, a control experiment was performed by inactivating thrombin with AEBSF prior to its addition to cells.

HeLa/IκB-PL cells = experiment: cell integrity control, intact-cell EFC assay on cells expressing cytoplasmic reporter IκB-PL; type: cell-based; conditions: series of increasing thrombin concentrations
Protocol: CHO/pGLUT4-PL.1 and HeLa/IκB-PL cells were assayed in parallel with a series of increasing thrombin concentrations (FIG. 6). As had been observed above, thrombin treatment of CHO/pGLUT4-PL.1 cells led to a dose-dependent increase in EFC activity.

[3] = biological target: GLUT4-ProLabel fusion protein encoded by plasmid pGLUT4-PL.1 (human); experiment: cell-based or functional assay
Sequence of GLUT4-ProLabel fusion protein encoded by plasmid pGLUT4-PL.1 (human) (chain, as listed by the source limits assumed): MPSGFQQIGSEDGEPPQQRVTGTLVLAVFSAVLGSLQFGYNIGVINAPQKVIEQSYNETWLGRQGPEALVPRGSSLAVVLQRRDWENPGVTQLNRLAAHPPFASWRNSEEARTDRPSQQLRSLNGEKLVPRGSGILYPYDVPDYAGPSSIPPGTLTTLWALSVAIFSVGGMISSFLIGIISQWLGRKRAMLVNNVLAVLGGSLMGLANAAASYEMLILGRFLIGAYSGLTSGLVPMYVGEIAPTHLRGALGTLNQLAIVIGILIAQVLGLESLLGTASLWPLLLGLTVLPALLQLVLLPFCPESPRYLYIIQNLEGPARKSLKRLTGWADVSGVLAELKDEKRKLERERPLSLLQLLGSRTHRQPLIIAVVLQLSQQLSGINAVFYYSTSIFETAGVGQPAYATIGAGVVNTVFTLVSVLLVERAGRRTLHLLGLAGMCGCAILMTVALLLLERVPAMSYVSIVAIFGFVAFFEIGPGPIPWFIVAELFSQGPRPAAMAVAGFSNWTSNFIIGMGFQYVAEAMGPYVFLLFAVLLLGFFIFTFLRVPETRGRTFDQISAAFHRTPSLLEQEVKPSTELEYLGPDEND

T1 sequence (P14672 with tags, fused parts or gaps INS67[withheld]): as the sequence (chain, as listed by the source limits assumed) above

insulin was tested, and the “increase in EFC activity relative to the no-insulin control” value ([1]; 1 μM insulin) was 15% and the “increase in EFC activity relative to the no-insulin control” value ([1]; 10 μM insulin) was 40%.
In the case of thrombin, the “enhancement of EFC activity over untreated cells” value [2] is reported as 4.4 fold and the “dose-dependent increase in EFC activity (cell integrity)” value (HeLa/IκB-PL cells) is reported as “no such increase was observed”.
For thrombin protease (enzyme), the EFC activity (enzyme fragment complementation, chemiluminescence) of intact CHO/pGLUT4-PL.1 cells [3] was 4.4 fold.
